From US11533912B2, “Use of cinnamate compounds in the control of fungal diseases of crops” (Institute of Plant Protection, Gansu Academy of …, priority 2019, dated 2022)
Where two headings read alike, the source gives them in different places.

How the values were obtained:
Rhizoctonia solani = experiment: Ex vivo mycelial growth, growth rate method; type: cell-based; conditions: 1 mg/mL; for inhibition at 1000 µg/mL: mycelial growth
Phytophthora infestans [1] = type: cell-based; conditions: Phytophthora infestans (first line); 1 mg/mL
Valsa mali = experiment: Ex vivo mycelial growth, growth rate method; type: cell-based; conditions: 1 mg/mL; for inhibition at 1000 µg/mL: Cytospora mali, mycelial growth
Phytophthora capsici = experiment: Ex vivo mycelial growth, growth rate method; type: cell-based; conditions: for antifungal activity on Phytophthora capsici compared with hymexazol: supplementary determination results
Fusarium graminearum = experiment: microbe, parasite or virus in culture; type: cell-based; conditions: for Average Diameter of the Colony: Fusarium graminearum (first line), 1 mg/mL; for inhibition at 1000 µg/mL: Fusarium graminearum, read-out: Inhibition Rate
Mycosphaerlla melonis = experiment: Ex vivo mycelial growth, growth rate method; type: cell-based; conditions: 1 mg/mL
Pythium aphanidermatum = experiment: Ex vivo mycelial growth, growth rate method; type: cell-based; conditions: 1 mg/mL; for inhibition at 1000 µg/mL: mycelial growth
Colletotrichum capsici = experiment: Ex vivo mycelial growth, growth rate method; type: cell-based; conditions: 1 mg/mL; for inhibition at 1000 µg/mL: Colletotrichum truncatum, mycelial growth
[2] = test system: Botryosphaeriana berengeriana; experiment: Ex vivo mycelial growth, growth rate method (line 'Botryosphaeriana berengeriana', r23); type: cell-based; conditions: Botryosphaeriana berengeriana (first line), 1 mg/mL; for inhibition at 1000 µg/mL: mycelial growth
Coniella diplodiella = experiment: Ex vivo mycelial growth, growth rate method; type: cell-based; conditions: 1 mg/mL; for inhibition at 1000 µg/mL: mycelial growth
[3] = test system: F. oxysporum f. sp. vasinfectum; experiment: Ex vivo mycelial growth, growth rate method; type: cell-based; conditions: 1 mg/mL; for inhibition at 1000 µg/mL: Fusarium oxysporum
[4] = test system: Gaeumannomyces graminis var. graminis and G. graminis var. tritici; experiment: Ex vivo mycelial growth, growth rate method; type: cell-based; conditions: 1 mg/mL; for inhibition at 1000 µg/mL: mycelial growth
[5] = test system: Botryosphaeria berengeriana; experiment: Ex vivo mycelial growth, growth rate method (line 'Botryosphaeria berengeriana', r34); type: cell-based; conditions: Botryosphaeria berengeriana (second line), 1 mg/mL; for inhibition at 1000 µg/mL: mycelial growth
C. gossypii = experiment: Ex vivo mycelial growth, growth rate method; type: cell-based; conditions: 1 mg/mL; for inhibition at 1000 µg/mL: Colletotrichum gossypii
F. graminearum = experiment: microbe, parasite or virus in culture; type: cell-based; conditions: for inhibition at 1000 µg/mL: Fusarium graminearum, read-out: Inhibition Rate
Thanatephorus cucumeris = experiment: Ex vivo mycelial growth, growth rate method; type: cell-based; conditions: 1 mg/mL; for inhibition at 1000 µg/mL: mycelial growth
Botrytis cinerea = experiment: Ex vivo mycelial growth, growth rate method; type: cell-based; conditions: 1 mg/mL
Exserohilum turcicum = experiment: Ex vivo mycelial growth, growth rate method; type: cell-based; conditions: 1 mg/mL
F. verticillioide = experiment: Ex vivo mycelial growth, growth rate method; type: cell-based; conditions: 1 mg/mL; for inhibition at 1000 µg/mL: mycelial growth
Sclerotinia sclerotiorum = experiment: Ex vivo mycelial growth, growth rate method; type: cell-based; conditions: 1 mg/mL
Pyricularia grisea = experiment: microbe, parasite or virus in culture; type: cell-based; conditions: for inhibition at 1000 µg/mL: read-out: Inhibition Rate
Phytophthora infestans [6] = type: cell-based; conditions: Phytophthora infestans (second line), 1 mg/mL
F. oxysporum f. sp. lini = experiment: Ex vivo mycelial growth, growth rate method; type: cell-based; conditions: 1 mg/mL; for inhibition at 1000 µg/mL: Fusarium oxysporum
plant pathogenic fungi = experiment: organism not typed; type: cell-based
[7] = test system: Blumeria graminis f. sp. trilici; experiment: In-vivo control of wheat powdery mildew in a greenhouse; parameters: species or system Blumeria graminis f. sp. trilici on winter wheat
zucchini powdery mildew = experiment: Field efficiency test on zucchini powdery mildew; type: in vivo; conditions: 0.50 mg/mL
E. cichoracearum = experiment: Field efficiency test on cucumber powdery mildew; conditions: 0.50 mg/mL (active ingredients)
Description: The first application was started on Jun. 15, 2018, and E. cichoracearum was inoculated on June 17th (the diseased leaves were harvested from the solar greenhouse near the military airfield at Xiaguanying town, Yuzhong County, moisturized in the greenhouse for 2 days, then shredded, and filtered over a gauze, the filtrate was sprayed onto both sides of the cucumber leaves with the cone nozzle of an electric sprayer for inoculation). The second, third and fourth applications were conducted on June 23rd, July 2nd, and July 9th respectively, the water consumptions of which were adjusted promptly according to the amount of water desired for spraying evenly onto both sides of the control leaves. 10 days after the fourth application, the number of disease leaves at each grade of powdery mildew was investigated following the grading standard of 9 grades, to calculate the disease index and the control effect.

[8] = test system: Erysiphe cucurbitacearum or Sphaerotheca cucurbitae; experiment: In-vivo control of zucchini powdery mildew in a greenhouse
Description: (2) In-Vivo Determination Method • Zucchini (Variety: Wuwei Xianglin extra-early 1st generation) were cultured in pots in a greenhouse, and inoculated with Erysiphe cucurbitacearum or Sphaerotheca cucurbitae at the stage of 3 to 4 leaves. […] Both sides of the leaves were sprayed evenly with a small hand-held sprayer so that the leaves were wetted by the liquor without loss. Applications were conducted every 7 days consecutively for 4 times. 10 days after the fourth application, the number of disease leaves at each grade of powdery mildew was investigated for the whole plant following the grading standard of 9 grades, to calculate the disease index and the control effect. The computational formula is as below: Disease index=[(Number of disease leaves at each grade×Corresponding grade value)/(Total number of investigated leaves×9)]×100; Control effect=(Disease index of the clear water control−Treated disease index)/Disease index of the clear water control×100.

E. polygoni = experiment: In-vivo control of marrow bean powdery mildew in a greenhouse
Description: (2) In-Vivo Determination Method • Marrow bean (Variety: Thailand Jiadouwang) were cultured in pots in a greenhouse, and inoculated with E. polygoni at the stage of 4 leaves. […] Both sides of the leaves were sprayed evenly with a small hand-held sprayer so that the leaves were wetted by the liquor without loss. Applications were conducted every 7 days consecutively for 4 times. 10 days after the fourth application, the number of disease leaves at each grade of powdery mildew was investigated for the whole plant following the grading standard of 9 grades, to calculate the disease index and the control effect.

[9] = test system: damping-off (P. aphanidermatum, P capsici); experiment: In-vivo control of pepper damping-off in a greenhouse (sick soil); conditions: 0.80 mg/mL, 200 mL liquor per pot
Description: (§1) (2) In-Vivo Determination Method • Sick soil of damping-off (P. aphanidermatum, P capsici) was collected from the fields of tomatoes, eggplants and peppers in solar greenhouse, and mixed evenly in equal proportion. Tomatoes (Variety: Song Tian Fen Yang Yang, 100 grains), eggplants (Variety: Lanza No. 2 F1 long eggplant, 100 grains), pepper (Longjiao 2 F1, 100 grains) were seeded quantitatively with the sick soil in pots (diameter: 15 cm) in a greenhouse, additionally with sterile vermiculite as the control (each 100 grains for determining the germination rate). […] The computational formula is as below: Mortality of Seedlings (%)=[number of survival seedlings in the seeded grains−number of seeded grains×(100%−germination rate)]/number of seeded grains×100; Control Effect (%)=(mortality of control seedlings−mortality of treated seedlings)/mortality of control seedlings×100.

[10] = test system: damping-off (P. aphanidermatum, P capsici); experiment: In-vivo control of eggplant damping-off in a greenhouse (sick soil); conditions: 0.80 mg/mL, 200 mL liquor per pot
Description: as §1

Pythium ultimum = experiment: Supplementary determination of antifungal activity; conditions: supplementary determination results
Description: (3) Ex Vivo Bioassay Method • The inhibition of samples for testing on the mycelial growth of plant pathogenic fungi for testing is determined with a growth rate method. […] Fungal cakes with a diameter of 4 mm are taken from the edge of the colony, inoculated into the center of a PDA plate containing different agents of different concentrations and the DMSO control, with one piece of fungal cake inoculated in each plate (with a diameter of 9 mm), and incubated in a constant temperature incubator at a temperature of 22±1.5° C. 7 days later (10˜20 days may be needed for some pathogenic fungi), the diameter of the colony is measured with a cross over method according to the mycelial growth profile of the control pathogenic fungi, then the inhibition rate of mycelial growth is calculated. The computational formula is as below: the inhibition rate of mycelial growth (%)=[(the diameter of the control colony−the diameter of the treated colony)/the diameter of the control colony]×100.

[11] = mycelial growth, Phytophthora capsici, 1 mg/mL
[12] = F. graminearum (second line), 1 mg/mL

Compound: CCOC(=O)/C=C/c1ccc2c(c1)OCO2
- Average Diameter of the Colony (Rhizoctonia solani): 0.80 cm
- inhibition at 1000 µg/mL (Rhizoctonia solani): 88.8%
- Average Diameter of the Colony (Phytophthora infestans [1]): 2.01 cm
- Average Diameter of the Colony (Valsa mali): 0.00 cm
- inhibition at 1000 µg/mL (Valsa mali): 100%
- Average Diameter of the Colony (Phytophthora capsici; Phytophthora capsici, 1 mg/mL): 1.42 cm
- inhibition at 1000 µg/mL (Phytophthora capsici; [11]): 73.2%
- antifungal activity on Phytophthora capsici compared with hymexazol (Phytophthora capsici): superior to that of the control agent, hymexazol
- Average Diameter of the Colony (Fusarium graminearum): 3.00 cm
- inhibition at 1000 µg/mL (Fusarium graminearum): 43.9%
- Average Diameter of the Colony (Mycosphaerlla melonis): 0.75 cm
- inhibition at 1000 µg/mL (Mycosphaerlla melonis; mycelial growth): 91.3%
- Average Diameter of the Colony (Pythium aphanidermatum): 2.60 cm
- inhibition at 1000 µg/mL (Pythium aphanidermatum): 61.2%
- Average Diameter of the Colony (Colletotrichum capsici): 1.49 cm
- inhibition at 1000 µg/mL (Colletotrichum capsici): 78%
- Average Diameter of the Colony [2]: 4.20 cm
- inhibition at 1000 µg/mL [2]: 26.3%
- Average Diameter of the Colony (Coniella diplodiella): 0.00 cm
- inhibition at 1000 µg/mL (Coniella diplodiella): 100%
- Average Diameter of the Colony [3]: 2.58 cm
- inhibition at 1000 µg/mL ([3]; mycelial growth): 64.4%
- Average Diameter of the Colony [4]: 2.45 cm
- inhibition at 1000 µg/mL [4]: 65.7%
- Average Diameter of the Colony [5]: 3.45 cm
- inhibition at 1000 µg/mL [5]: 49.3%
- Average Diameter of the Colony (C. gossypii): 1.74 cm
- inhibition at 1000 µg/mL (C. gossypii; mycelial growth): 67.8%
- Average Diameter of the Colony (F. graminearum; [12]): 1.73 cm
- inhibition at 1000 µg/mL (F. graminearum): 79.9%
- Average Diameter of the Colony (Thanatephorus cucumeris): 3.75 cm
- inhibition at 1000 µg/mL (Thanatephorus cucumeris): 56.4%
- Average Diameter of the Colony (Botrytis cinerea): 2.17 cm
- inhibition at 1000 µg/mL (Botrytis cinerea; mycelial growth): 71%
- Average Diameter of the Colony (Exserohilum turcicum): 1.52 cm
- inhibition at 1000 µg/mL (Exserohilum turcicum; mycelial growth): 75.5%
- Average Diameter of the Colony (F. verticillioide): 2.91 cm
- inhibition at 1000 µg/mL (F. verticillioide): 13.9%
- Average Diameter of the Colony (Sclerotinia sclerotiorum): 4.71 cm
- inhibition at 1000 µg/mL (Sclerotinia sclerotiorum; mycelial growth): 45.2%
- Average Diameter of the Colony (Pyricularia grisea; 1 mg/mL): 2.70 cm
- inhibition at 1000 µg/mL (Pyricularia grisea): 25.6%
- Average Diameter of the Colony (Phytophthora infestans [6]): 0.00 cm
- Average Diameter of the Colony (F. oxysporum f. sp. lini): 6.97 cm
- inhibition at 1000 µg/mL (F. oxysporum f. sp. lini; mycelial growth): 22.6%
- inhibition at 1000 µg/mL (plant pathogenic fungi; read-out: inhibition rate on mycelial growth, range over 5 fungi): 88.8 to 100%
- Control Effect ([7]; 0.143 mg/mL): 74.28%
- Control Effect ([7]; 0.20 mg/mL): 77.65%
- Control Effect (zucchini powdery mildew): 85.56%
- control effect on cucumber powdery mildew (E. cichoracearum): 80.95%
- Control Effect ([8]; 0.20 mg/mL): 77.06%
- Control Effect ([8]; 0.333 mg/mL): 96.21%
- Control Effect ([8]; 0.50 mg/mL): 97.93%
- Control Effect (E. polygoni; 0.10 mg/mL): 75.92%
- Control Effect (E. polygoni; 0.143 mg/mL): 95.20%
- Control Effect (E. polygoni; 0.20 mg/mL): 95.49%
- control effect on pepper damping-off [9]: 52%
- control effect on eggplant damping-off [10]: 53.63%

Compound: CO/C=C(/C(=O)OC)c1ccccc1Oc1cc(Oc2ccccc2C#N)ncn1 [Azoxystrobin, azoxystrobin, reference compound]
- Inhibition Rate (Phytophthora capsici; [11]): 25.55%
- Inhibition Rate (Mycosphaerlla melonis; mycelial growth): 56.33%
- Inhibition Rate ([3]; mycelial growth): 66.33%
- Inhibition Rate (C. gossypii; mycelial growth): 40.33%
- Inhibition Rate (F. graminearum; mycelial growth, F. graminearum (second line), 1 mg/mL): 30.78%
- Inhibition Rate (Botrytis cinerea; mycelial growth): 51.89%
- Inhibition Rate (Exserohilum turcicum; mycelial growth): 27.78%
- Inhibition Rate (Sclerotinia sclerotiorum; mycelial growth): 51.11%
- Inhibition Rate (Pyricularia grisea; mycelial growth, 1 mg/mL): 48.11%
- Inhibition Rate (Phytophthora infestans [6]; mycelial growth): 100%
- Inhibition Rate (F. oxysporum f. sp. lini; mycelial growth): 34.11%

Compound: CCOC(=O)/C=C/c1ccc(OC)c(OC)c1 [ethyl 3-(3′,4′-dimethoxyphenyl) acrylate]
- Average Diameter of the Colony (Rhizoctonia solani): 0.00 cm
- inhibition at 1000 µg/mL (Rhizoctonia solani): 100%
- Average Diameter of the Colony (Phytophthora infestans [1]): 1.33 cm
- Average Diameter of the Colony (Valsa mali): 0.00 cm
- inhibition at 1000 µg/mL (Valsa mali): 100%
- Average Diameter of the Colony (Phytophthora capsici; Phytophthora capsici, 1 mg/mL): 0.75 cm
- inhibition at 1000 µg/mL (Phytophthora capsici; [11]): 85.8%
- antifungal activity on Phytophthora capsici compared with hymexazol (Phytophthora capsici): superior to that of the control agent, hymexazol
- Average Diameter of the Colony (Fusarium graminearum): 1.40 cm
- inhibition at 1000 µg/mL (Fusarium graminearum): 73.8%
- Average Diameter of the Colony (Mycosphaerlla melonis): 0.05 cm
- inhibition at 1000 µg/mL (Mycosphaerlla melonis; mycelial growth): 99.4%
- Average Diameter of the Colony (Pythium aphanidermatum): 0.73 cm
- inhibition at 1000 µg/mL (Pythium aphanidermatum): 89.1%
- Average Diameter of the Colony (Colletotrichum capsici): 0.83 cm
- inhibition at 1000 µg/mL (Colletotrichum capsici): 87.8%
- Average Diameter of the Colony [2]: 1.58 cm
- inhibition at 1000 µg/mL [2]: 72.3%
- Average Diameter of the Colony (Coniella diplodiella): 0.00 cm
- inhibition at 1000 µg/mL (Coniella diplodiella): 100%
- Average Diameter of the Colony [3]: 2.68 cm
- inhibition at 1000 µg/mL ([3]; mycelial growth): 63%
- Average Diameter of the Colony [4]: 2.56 cm
- inhibition at 1000 µg/mL [4]: 64.2%
- Average Diameter of the Colony [5]: 2.95 cm
- inhibition at 1000 µg/mL [5]: 56.6%
- Average Diameter of the Colony (C. gossypii): 1.33 cm
- inhibition at 1000 µg/mL (C. gossypii; mycelial growth): 75.4%
- Average Diameter of the Colony (F. graminearum; [12]): 2.74 cm
- inhibition at 1000 µg/mL (F. graminearum): 68.1%
- Average Diameter of the Colony (Thanatephorus cucumeris): 0.94 cm
- inhibition at 1000 µg/mL (Thanatephorus cucumeris): 89.1%
- Average Diameter of the Colony (Botrytis cinerea): 0.61 cm
- inhibition at 1000 µg/mL (Botrytis cinerea; mycelial growth): 91.9%
- Average Diameter of the Colony (Exserohilum turcicum): 0.56 cm
- inhibition at 1000 µg/mL (Exserohilum turcicum; mycelial growth): 91%
- Average Diameter of the Colony (F. verticillioide): 2.28 cm
- inhibition at 1000 µg/mL (F. verticillioide): 32.5%
- Average Diameter of the Colony (Sclerotinia sclerotiorum): 1.34 cm
- inhibition at 1000 µg/mL (Sclerotinia sclerotiorum; mycelial growth): 84.4%
- Average Diameter of the Colony (Pyricularia grisea; 1 mg/mL): 5.47 cm
- inhibition at 1000 µg/mL (Pyricularia grisea): 39.2%
- Average Diameter of the Colony (Phytophthora infestans [6]): 0.00 cm
- Average Diameter of the Colony (F. oxysporum f. sp. lini): 6.17 cm
- inhibition at 1000 µg/mL (F. oxysporum f. sp. lini; mycelial growth): 31.4%
- inhibition at 1000 µg/mL (plant pathogenic fungi; read-out: inhibition rate on mycelial growth, range over 12 fungi): 84.4 to 100%
- Control Effect ([7]; 0.143 mg/mL): 79.47%
- Control Effect ([7]; 0.20 mg/mL): 91.55%
- Control Effect (zucchini powdery mildew): 91.93%
- control effect on cucumber powdery mildew (E. cichoracearum): 85.18%
- antifungal activity on Pythium ultimum compared with carbendazim (Pythium ultimum): superior to that of the control agent, carbendazim
- Control Effect ([8]; 0.20 mg/mL): 81.83%
- Control Effect ([8]; 0.333 mg/mL): 95.52%
- Control Effect ([8]; 0.50 mg/mL): 98.63%
- Control Effect (E. polygoni; 0.10 mg/mL): 83.69%
- Control Effect (E. polygoni; 0.143 mg/mL): 97.09%
- Control Effect (E. polygoni; 0.20 mg/mL): 100%
- control effect on pepper damping-off [9]: 64.57%
- control effect on eggplant damping-off [10]: 48.71%
